Measurements as given in patent US20230339968A1, “KRAS Gl2C INHIBITORS” (Eli Lilly and Company, priority 2019, published 2023).
Where two headings read alike, the source gives them in different places.

Key:
A549 (lung) = test: CellTiterGlo Cell Proliferation Assay (2D), A549 (KRas G12S); type: cell-based; conditions: Homo sapiens; for inhibition at 10 µM: read-out: % inh. @ 10 μM
Procedure: (§1) The purpose of this assay is to evaluate the growth of KRas G12C mutant tumor lines following treatment with a test compound. A panel of tumor cell lines harboring KRas G12C or other KRas mutations are collected (Table 25). All cell lines are from ATCC or other sources indicated.
(§2) Typically cells are cultured in RPMI1640 or Dulbecco's modified Eagle's medium (DMEM, GIBCO) supplemented with 10% FBS (GIBCO, Invitrogen). […] The cells are treated with compound for 96 hours, and then are analyzed for viability using the CellTiterGlo® Luminescent Cell Viability Assay® (Promega #G7572 for 2D) according to manufacturer's instructions and an EnVision™ plate reader. Nonlinear regression and sigmoidal dose-response curves are used to calculate the half maximal inhibitory concentration (IC50) with GraphPad Prism 4® software.

H1373 (lung) = test: CellTiterGlo Cell Proliferation Assay (2D), H1373; type: cell-based; conditions: Homo sapiens, NCI-H1373, 96 hours
Procedure: as §1, §2

H2122 (lung) = test: CellTiterGlo Cell Proliferation Assay (2D), H2122; type: cell-based; conditions: Homo sapiens, NCI-H2122, 96 hours
Procedure: as §1, §2

UM-UC-3 (bladder) = test: CellTiterGlo Cell Proliferation Assay (2D), UM-UC-3; type: cell-based; conditions: Homo sapiens, UMUC3, 96 hours
Procedure: as §1, §2

LXFA-983L (lung) = test: CellTiterGlo Cell Proliferation Assay (2D), LXFA-983L; type: cell-based; conditions: 96 hours
Procedure: as §1, §2

KYSE-410 (esoph) = test: CellTiterGlo Cell Proliferation Assay (2D), KYSE-410; type: cell-based; conditions: Homo sapiens, 96 hours
Procedure: as §1, §2

SW756 (cervix) = test: CellTiterGlo Cell Proliferation Assay (2D), SW756; type: cell-based; conditions: Homo sapiens, 96 hours
Procedure: as §1, §2

H358 (lung) = test: CellTiterGlo Cell Proliferation Assay (2D), H358; type: cell-based; conditions: Homo sapiens, NCI-H358, 96 hours
Procedure: as §1, §2

SW1463 (colon) = test: CellTiterGlo Cell Proliferation Assay (2D), SW1463; type: cell-based; conditions: Homo sapiens, 96 hours
Procedure: as §1, §2

LU99 (lung) = test: CellTiterGlo Cell Proliferation Assay (2D), LU99; type: cell-based; conditions: Homo sapiens, Lu-99, 96 hours
Procedure: as §1, §2

H23 (lung) = test: CellTiterGlo Cell Proliferation Assay (2D), H23; type: cell-based; conditions: 96 hours
Procedure: as §1, §2

active KRas = active KRas (Homo sapiens, UniProt P01116, G12C); test: In vivo target inhibition, active KRas ELISA of tumor lysates, lung cancer H358 xenograft model; design: from tissue; host or cells: H358 xenograft tumours grown subcutaneously in nude female mice; conditions: NCI-H358, mouse; for inhibition at 12.5 mg/kg / inhibition at 25 mg/kg / inhibition at 50 mg/kg / inhibition at 100 mg/kg: po
Sequence of active KRas (P01116 1-188 isoform P01116-2 G12C): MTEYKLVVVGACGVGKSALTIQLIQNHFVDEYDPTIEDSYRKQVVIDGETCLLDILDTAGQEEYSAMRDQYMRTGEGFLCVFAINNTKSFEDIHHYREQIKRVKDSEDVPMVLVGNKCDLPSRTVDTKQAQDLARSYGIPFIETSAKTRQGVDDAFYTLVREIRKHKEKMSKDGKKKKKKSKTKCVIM
Procedure: (§3) The purpose of these assays is to evaluate in vivo target inhibition of an orally administered test compound. Human lung cancer H358 cells, or pancreatic cancer MiaPaca-2 cells, are implanted into nude mice xenograft tumor models. H358 or MiaPaca-2 cells (10×106 in a 1:1 Matrigel® mix, 0.2 mL total volume) are implanted by subcutaneous injection in hind leg of nude female mice (Harlan Laboratories). […] Treatment is initiated with oral administration (gavage) of a test compound or vehicle (20% Captisol®, 25 mM phosphate, pH 2.0 in 0.2 mL) when the tumor size reaches approximately 300 mg.
(§4) For in vivo target inhibition and PD analysis, tumors are ground by mortar and pestle on dry ice and tumor fragments are added to 800 μL of lysis buffer containing 1% Triton™ X-100, 25 mM Tris pH7.5, 150 mM sodium chloride, 1 mM EDTA, and 1 mM EGTA with Halt protease and phosphatase inhibitor cocktail (Thermo Scientific, cat. no. 1861281) in lysing matrix D tubes (MP Biomedical®, cat. no. 6913-500) with one additional large bead (MP Biomedical® ¼″ ceramic sphere bead cat. no. 6540-412) per tube. Tumor fragments are homogenized in a Thermo Bio101® fast prep (FP120) at setting 4 for […] while cold for a total of 2 times. Lysates are spun at 14,000 rpm for 10 minutes at 4° C. to clarify. Protein estimation is done on the lysate supernatant using a BioRad Dc® protein assay and lysates are diluted in complete lysis/binding buffer from the Ras GTPase Chemi ELISA Kit® (Active Motif, cat. no. 52097). The active KRas ELISA is performed as follows: glutathione-coated ELISA wells are incubated with diluted RAF1-GST in complete lysis/binding buffer for 1 hour at 4° C. with gentle agitation. Wells are washed 3 times with wash buffer and 100 μg of lysates are added to each well and incubated at ambient temperature for 1 hour with mild agitation. The wells are washed an additional 3 times, then primary antibody, diluted in antibody binding buffer, is added to each well. The plates are incubated for 1 hour. The wells are washed 3 more times before adding HRP-conjugated secondary antibody, diluted in antibody binding buffer, to each well. The plates are incubated at ambient temperature for 1 hour. ELISA wells are washed 4 times, chemiluminescent reagent is added and then luminescence is read. For pERK Meso Scale Discovery ELISA, 25 μg of protein containing 0.1% SDS is used; Meso Scale Discovery Whole Cell Lysate Kit for pERK is provided by Meso Scale Discovery.
(§5) The purpose of this assay is to evaluate the dose dependent in vivo target inhibition and pharmacodynamic effects in a lung cancer model. The test compound is dosed in lung cancer H358 mouse xenograft model at a dose range from 12.5 to 100 mg/kg. The tumor samples are collected 8 hours post a single dose. The tumor lysates are prepared and the inhibition of pERKand active KRas is measured as described above.
(§6) The purpose of this assay is to evaluate the time dependent in vivo target inhibition and pharmacodynamic effects in a lung cancer model. […] After a single dose, the tumor samples are harvested at 2, 4, 8, 12 and 24 hour post doing. The tumor lysates are prepared and the inhibition of pERK and active KRas is measured as described above.

pERK = test: In vivo pharmacodynamic effect, pERK Meso Scale Discovery ELISA of tumor lysates, lung cancer H358 xenograft model; design: species or system mouse; conditions: Mus musculus; for inhibition at 12.5 mg/kg / inhibition at 25 mg/kg / inhibition at 50 mg/kg / inhibition at 100 mg/kg: NCI-H358, po, 8 h, read-out: % Inhibition of pERK; for inhibition at 30 mg/kg: read-out: % inhibition of pERK
Procedure: as §3, §4, §5, §6

[1] = A549 (lung, KRas G12S), 2D, 96 hours
[2] = A549 (lung, KRas G12S), 2D, 96 hours, 10 μM

Structure (SMILES)	IC50 (A549 (lung); [1])	IC50 (H1373 (lung))	inhibition at 10 µM (H1373 (lung))	IC50 (H2122 (lung))	inhibition at 10 µM (H2122 (lung))	IC50 (UM-UC-3 (bladder))	inhibition at 10 µM (UM-UC-3 (bladder))	IC50 (LXFA-983L (lung))	inhibition at 10 µM (LXFA-983L (lung))	IC50 (KYSE-410 (esoph))	inhibition at 10 µM (KYSE-410 (esoph))	IC50 (SW756 (cervix))	inhibition at 10 µM (SW756 (cervix))	IC50 (H358 (lung))	inhibition at 10 µM (H358 (lung))	IC50 (SW1463 (colon))	inhibition at 10 µM (SW1463 (colon))	IC50 (LU99 (lung))	inhibition at 10 µM (LU99 (lung))	IC50 (H23 (lung))	also measured
C=CC(=O)N1CCN2C(=O)c3cc(Cl)c(-c4ccc(F)c5sc(N)nc45)c(Cl)c3OCC[C@H]2C1 (atropisomer, axis not shown) [Example 1, (13aS)-9-(2-Amino-7-fluoro-1,3-benzothiazol-4-yl)-8,10-dichloro-2-prop-2-enoyl-1,3,4,12,13,13a-hexahydropyrazino[2,1-d][1,5]benzoxazocin-6-one]	> 10000 nM	1810 nM	68.8%	1170 nM	80.4%	730 nM	54.3%	3610 nM	78.6%	5840 nM	64.6%	1630 nM	51.9%	4 nM	94.5%	6 nM	95.3%	303 nM	89.9%	45 nM	inhibition at 10 µM (A549 (lung); [2]): 19.1%; inhibition at 10 µM (H23 (lung)): 98.2%
C=CC(=O)N1CCN2C(=O)c3cc(F)c(-c4cccc5sc(N)c(C#N)c45)c(Cl)c3OCC[C@H]2C1 [Example 34, 4-[(13aS)-10-Chloro-8-fluoro-6-oxo-2-prop-2-enoyl-1,3,4,12,13,13a-hexahydropyrazino[2,1-d][1,5]benzoxazocin-9-yl]-2-amino-benzothiophene-3-carbonitrile]	> 10000 nM	6740 nM	67.7%	660 nM	78.1%	510 nM	56.1%	> 10000 nM	68.8%	> 10000 nM	63.2%	1080 nM	56.9%	2 nM	95.6%	4 nM	90.1%	201 nM	91.9%	26 nM	inhibition at 10 µM (A549 (lung); [2]): 18.8%; inhibition at 12.5 mg/kg (active KRas; H358 xenograft mice, single oral dose 12.5 mg/kg, 8 hours, read-out: % Inhibition Active RAS): 14.2%; inhibition at 25 mg/kg (active KRas; H358 xenograft mice, single oral dose 25 mg/kg, 8 hours, read-out: % Inhibition Active RAS): 35.1%; inhibition at 50 mg/kg (active KRas; H358 xenograft mice, single oral dose 50 mg/kg, 8 hours, read-out: % Inhibition Active RAS): 31.5%; inhibition at 100 mg/kg (active KRas; H358 xenograft mice, single oral dose 100 mg/kg, 8 hours, read-out: % Inhibition Active RAS): 69.3%; inhibition at 12.5 mg/kg (pERK; H358 xenograft mice, single oral dose 12.5 mg/kg, 8 hours): 26.9%; inhibition at 25 mg/kg (pERK; H358 xenograft mice, single oral dose 25 mg/kg, 8 hours): 53.2%; inhibition at 50 mg/kg (pERK; H358 xenograft mice, single oral dose 50 mg/kg, 8 hours): 54%; inhibition at 100 mg/kg (pERK; H358 xenograft mice, single oral dose 100 mg/kg, 8 hours): 74.8%; inhibition at 10 µM (H23 (lung)): 96.8%
C=CC(=O)N1CCN2C(=O)c3cc(F)c(-c4ccc(F)c5sc(N)c(C#N)c45)c(Cl)c3OCC[C@H]2C1 [Example 35, 4-[(13aS)-10-Chloro-8-fluoro-6-oxo-2-prop-2-enoyl-1,3,4,12,13,13a-hexahydropyrazino[2,1-d][1,5]benzoxazocin-9-yl]-2-amino-7-fluoro-benzothiophene-3-carbonitrile]	> 10000 nM	3540 nM	86.3%	900 nM	79.7%	1090 nM	80.4%	> 10000 nM	83.1%	7970 nM	68.3%	1550 nM	56.7%	2 nM	96.4%	5 nM	94.3%	173 nM	96.6%	24 nM	inhibition at 10 µM (A549 (lung); A549, 96 h): 31.6%; inhibition at 12.5 mg/kg (active KRas; read-out: % Inhibition Active RAS, H358 xenograft mice, single oral dose 12.5 mg/kg, 8 hours): 81%; inhibition at 25 mg/kg (active KRas; read-out: % Inhibition Active RAS, H358 xenograft mice, single oral dose 25 mg/kg, 8 hours): 73.4%; inhibition at 50 mg/kg (active KRas; read-out: % Inhibition Active RAS, H358 xenograft mice, single oral dose 50 mg/kg, 8 hours): 94%; inhibition at 100 mg/kg (active KRas; read-out: % Inhibition Active RAS, H358 xenograft mice, single oral dose 100 mg/kg, 8 hours): 91.9%; inhibition at 30 mg/kg (active KRas; read-out: % Inhibition of Active Ras, H358 model, single dose 30 mg/kg, 2 h): 7.6%; inhibition at 30 mg/kg (active KRas; read-out: % Inhibition of Active Ras, H358 model, single dose 30 mg/kg, 4 h): 65.7%; inhibition at 30 mg/kg (active KRas; read-out: % Inhibition of Active Ras, H358 model, single dose 30 mg/kg, 8 h): 80.2%; inhibition at 30 mg/kg (active KRas; read-out: % Inhibition of Active Ras, H358 model, single dose 30 mg/kg, 12 h): 39.3%; inhibition at 30 mg/kg (active KRas; read-out: % Inhibition of Active Ras, H358 model, single dose 30 mg/kg, 24 h): 54.9%; inhibition at 30 mg/kg (pERK; NCI-H358, 2 h): 67.9%; inhibition at 30 mg/kg (pERK; NCI-H358, 4 h): 73.2%; inhibition at 30 mg/kg (pERK; NCI-H358, 8 h): 82.6%; inhibition at 30 mg/kg (pERK; NCI-H358, 12 h): 71.1%; inhibition at 30 mg/kg (pERK; NCI-H358, 24 h): 65.2%; inhibition at 12.5 mg/kg (pERK): 82.2%; inhibition at 25 mg/kg (pERK): 85.3%; inhibition at 50 mg/kg (pERK): 90.6%; inhibition at 100 mg/kg (pERK): 88.9%; inhibition at 10 µM (H23 (lung)): 98%
